Values quoted from earlier work in patent US20230416692A1 (BOARD OF REGENTS, THE UNIVERSITY OF TEXAS SYSTEM, priority 2020, published 2023).

Test system: COVID-19
Conditions: human, in vivo; cited from earlier work

Compound	fatality rate among hospitalized patients (in words)
CC[C@H]1OC(=O)[C@H](C)[C@@H](O[C@H]2C[C@@](C)(OC)[C@@H](O)[C@H](C)O2)[C@H](C)[C@@H](O[C@@H]2O[C@H](C)C[C@H](N(C)C)[C@H]2O)[C@](C)(O)C[C@@H](C)CN(C)[C@H](C)[C@@H](O)[C@]1(C)O [azithromycin]	not associated with significant differences in fatality rate
CCN(CCO)CCCC(C)Nc1ccnc2cc(Cl)ccc12 (centres unmarked) [hydroxychloroquine]	not associated with significant differences in fatality rate
